Assay results as given in patent publication US9156829B2, “Cycloalkyl and heterocycloalkyl compounds as orexin receptor antagonists” (Takeda Pharmaceutical Company Limited, priority 2014, dated 2015).

Columns and labels:
human orexin receptor 2 = human orexin receptor 2 (Homo sapiens (Human), UniProt O43614); test: Orexin antagonist activity, intracellular calcium FLIPR assay, RBL-2H3 cells expressing human orexin receptor 2; assay type: cell-based; details: RBL-2H3 cells stably expressing human orexin receptor 2; orexin-A at approx. 80% maximal response; compound added 15 minutes before; read-out: Human Orexin2R IC50
human orexin receptor 2, sequence (O43614 whole entry): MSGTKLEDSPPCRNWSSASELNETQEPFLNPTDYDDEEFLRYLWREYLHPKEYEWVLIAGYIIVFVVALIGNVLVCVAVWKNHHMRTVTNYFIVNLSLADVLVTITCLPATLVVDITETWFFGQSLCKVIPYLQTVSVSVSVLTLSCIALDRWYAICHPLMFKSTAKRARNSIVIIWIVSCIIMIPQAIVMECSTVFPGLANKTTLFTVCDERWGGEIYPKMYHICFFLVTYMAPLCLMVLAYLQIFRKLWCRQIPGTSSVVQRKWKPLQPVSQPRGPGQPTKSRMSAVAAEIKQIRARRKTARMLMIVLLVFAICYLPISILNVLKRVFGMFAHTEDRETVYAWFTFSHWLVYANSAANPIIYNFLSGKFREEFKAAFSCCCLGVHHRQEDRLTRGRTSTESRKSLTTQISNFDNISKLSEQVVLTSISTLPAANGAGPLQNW

human orexin receptor 1 = human orexin receptor 1 (Homo sapiens (Human), UniProt O43613); test: Orexin antagonist activity, intracellular calcium FLIPR assay, RBL-2H3 cells expressing human orexin receptor 1; assay type: cell-based; details: RBL-2H3 cells stably expressing human orexin receptor 1; orexin-A at approx. 80% maximal response; compound added 15 minutes before; read-out: Human Orexin1R IC50
human orexin receptor 1, sequence (O43613 whole entry): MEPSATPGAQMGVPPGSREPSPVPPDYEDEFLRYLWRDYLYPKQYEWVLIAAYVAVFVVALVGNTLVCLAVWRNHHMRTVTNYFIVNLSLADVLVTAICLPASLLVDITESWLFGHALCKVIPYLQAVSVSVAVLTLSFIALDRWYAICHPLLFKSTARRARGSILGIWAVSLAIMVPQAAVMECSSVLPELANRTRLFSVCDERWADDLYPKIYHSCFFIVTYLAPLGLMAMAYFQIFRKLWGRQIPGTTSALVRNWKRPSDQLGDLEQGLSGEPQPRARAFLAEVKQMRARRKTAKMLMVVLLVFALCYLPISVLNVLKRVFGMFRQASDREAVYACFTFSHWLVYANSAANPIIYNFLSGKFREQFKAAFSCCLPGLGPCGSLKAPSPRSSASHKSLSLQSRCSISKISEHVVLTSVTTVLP

Structure (SMILES) | IC50 (human orexin receptor 2) | IC50 (human orexin receptor 1)
Cc1ccc(-n2ccnn2)c(C(=O)N[C@H]2CCC[C@@H]2Nc2cnc(C(F)(F)F)cn2)c1 [Example 42, 5-Methyl-2-(1H-1,2,3-triazol-1-yl)-N-[(1S,2S)-2-{[5-(trifluoromethyl)pyrazin-2-yl]amino}cyclopentyl]benzamide] | > 10000 nM | 261 nM
O=C(NC1CC(F)(F)CC1Nc1ccc(C(F)(F)F)cn1)c1ccccc1-n1nccn1 (single isomer, unassigned) [Example 128, N-(4,4-Difluoro-2-{[5-(trifluoromethyl)pyridin-2-yl]amino}cyclopentyl)-2-(2H-1,2,3-triazol-2-yl)benzamide] | > 10000 nM | 33 nM
CC1(Nc2ncc(C(F)(F)F)cc2F)CCCC1NC(=O)c1ncccc1-c1ncccn1 (centres unmarked) [Example 146, N-(2-{[3-Fluoro-5-(trifluoromethyl)pyridin-2-yl]amino}-2-methylcyclopentyl)-3-(pyrimidin-2-yl)pyridine-2-carboxamide] | > 10000 nM | 7 nM
O=C(N[C@H]1CCC[C@@H]1Nc1cnc(C(F)(F)F)cn1)c1cccc(F)c1-n1nccn1 [Example 53, 3-Fluoro-2-(2H-1,2,3-triazol-2-yl)-N-[(1S,2S)-2-{[5-(trifluoromethyl)pyrazin-2-yl]amino}cyclopentyl]benzamide] | > 10000 nM | 93 nM
O=C(N[C@H]1CCC[C@@H]1Nc1cnc(C(F)(F)F)cn1)c1cc(F)ccc1-c1ncccn1 [Example 39, 5-Fluoro-2-(pyrimidin-2-yl)-N-[(1S,2S)-2-{[5-(trifluoromethyl)pyrazin-2-yl]amino}cyclopentyl]benzamide] | > 10000 nM | 81 nM
O=C(N[C@H]1CCC[C@@H]1Nc1cnc(C(F)(F)F)cn1)c1ccccc1C(F)F [Example 65, 2-(Difluoromethyl)-N-[(1S,2S)-2-{[5-(trifluoromethyl)pyrazin-2-yl]amino}cyclopentyl]benzamide] | > 10000 nM | 797 nM
COc1cccc(OC)c1C(=O)N(C1CCC1)[C@H]1CCC[C@@H]1Nc1ccc(C(F)(F)F)cn1 [Example 68, N-Cyclobutyl-2,6-dimethoxy-N-[(1S,2S)-2-{[5-(trifluoromethyl)pyridin-2-yl]amino}cyclopentyl]benzamide] | 1610 nM | 297 nM
O=C(N[C@H]1CCC[C@@H]1Nc1ncc(C(F)(F)F)cc1F)c1ncccc1-n1nccn1 [Example 123, N-[(1S,2S)-2-{[3-Fluoro-5-(trifluoromethyl)pyridin-2-yl]amino}cyclopentyl]-3-(2H-1,2,3-triazol-2-yl)pyridine-2-carboxamide] | > 10000 nM | 18 nM
O=C(N[C@H]1CCC[C@@H]1Nc1ccc(C(F)(F)F)cn1)c1ccccc1Cl [Example 69, 2-Chloro-N-[(1S,2S)-2-{[5-(trifluoromethyl)pyridin-2-yl]amino}cyclopentyl]benzamide] | > 10000 nM | 321 nM
CC1(Nc2ncc(C(F)(F)F)cc2F)CCCC1NC(=O)c1ncccc1-n1nccn1 (centres unmarked) [Example 103, N-(2-{[3-Fluoro-5-(trifluoromethyl)pyridin-2-yl]amino}-2-methylcyclopentyl)-3-(2H-1,2,3-triazol-2-yl)pyridine-2-carboxamide] | 7900 nM | 8 nM
O=C(N[C@H]1CCC[C@@H]1Nc1ccc(C(F)(F)F)cn1)c1c(F)cccc1-n1nccn1 [Example 102, 2-Fluoro-6-(2H-1,2,3-triazol-2-yl)-N-[(1S,2S)-2-{[5-(trifluoromethyl)pyridin-2-yl]amino}cyclopentyl]benzamide] | > 10000 nM | 46 nM
O=C(N[C@H]1CCC[C@@H]1Nc1cnc(C(F)(F)F)cn1)c1ccccc1-n1ccnn1 [Example 35, 2-(1H-1,2,3-Triazol-1-yl)-N-[(1S,2S)-2-{[5-(trifluoromethyl)pyrazin-2-yl]amino}cyclopentyl]benzamide] | > 10000 nM | 693 nM
O=C(N[C@H]1CCC[C@@H]1Nc1cc(C(F)(F)F)ccn1)c1ccccc1-n1nccn1 [Example 121, 2-(2H-1,2,3-Triazol-2-yl)-N-[(1S,2S)-2-{[4-(trifluoromethyl)pyridin-2-yl]amino}cyclopentyl]benzamide] | > 10000 nM | 822 nM
O=C(N[C@H]1CCC[C@@H]1Nc1cnc(C(F)(F)F)cn1)c1c(F)cccc1-n1nccn1 [Example 32, 2-Fluoro-6-(2H-1,2,3-triazol-2-yl)-N-[(1S,2S)-2-{[5-(trifluoromethyl)pyrazin-2-yl]amino}cyclopentyl]benzamide] | > 10000 nM | 32 nM
CCOc1ccc(C)nc1C(=O)N[C@H]1CCC[C@@H]1Nc1cnc(C(F)(F)F)cn1 [Example 30, 3-Ethoxy-6-methyl-N-[(1S,2S)-2-{[5-(trifluoromethyl)pyrazin-2-yl]amino}cyclopentyl]pyridine-2-carboxamide] | > 10000 nM | 370 nM
Cc1nc(C(F)(F)F)cnc1N[C@H]1CCC[C@@H]1NC(=O)c1ncccc1-c1ncccn1 [Example 159, N-[(1S,2S)-2-{[3-Methyl-5-(trifluoromethyl)pyrazin-2-yl]amino}cyclopentyl]-3-(pyrimidin-2-yl)pyridine-2-carboxamide] | > 10000 nM | 25 nM

Structure (SMILES) | IC50 (human orexin receptor 2) | IC50 (human orexin receptor 1)
O=C(N[C@H]1CCC[C@@H]1Nc1ccc(C(F)(F)F)cn1)c1cc(Cl)ccc1-n1nccn1 [Example 97, 5-Chloro-2-(2H-1,2,3-triazol-2-yl)-N-[(1S,2S)-2-{[5-(trifluoromethyl)pyridin-2-yl]amino}cyclopentyl]benzamide] | > 10000 nM | 122 nM
O=C(N[C@H]1CCC[C@@H]1Nc1ccc(C(F)(F)F)cn1)c1c(F)cccc1F [Example 72, 2,6-Difluoro-N-[(1S,2S)-2-{[5-(trifluoromethyl)pyridin-2-yl]amino}cyclopentyl]benzamide] | > 10000 nM | 479 nM
O=C(N[C@H]1CCC[C@@H]1Nc1cnc(C(F)(F)F)cn1)c1cc(C(F)(F)F)ccc1-n1ccnn1 [Example 54, 2-(1H-1,2,3-Triazol-1-yl)-5-(trifluoromethyl)-N-[(1S,2S)-2-{[5-(trifluoromethyl)pyrazin-2-yl]amino}cyclopentyl]benzamide] | > 10000 nM | 950 nM
O=C(N[C@H]1CCC[C@@H]1Nc1cnc(C(F)(F)F)cn1)c1cc(Cl)ccc1-n1ccnn1 [Example 55, 5-Chloro-2-(1H-1,2,3-triazol-1-yl)-N-[(1S,2S)-2-{[5-(trifluoromethyl)pyrazin-2-yl]amino}cyclopentyl]benzamide] | > 10000 nM | 761 nM
O=C(NC1CC(F)(F)CC1Nc1ncc(C(F)(F)F)cn1)c1ccccc1-n1nccn1 (single isomer, unassigned) [Example 127, N-(4,4-Difluoro-2-{[5-(trifluoromethyl)pyrimidin-2-yl]amino}cyclopentyl)-2-(2H-1,2,3-triazol-2-yl)benzamide] | > 10000 nM | 68 nM
O=C(NC1CCCC1Cc1ccc(C(F)(F)F)cn1)c1ccccc1-n1nccn1 (centres unmarked) [Example 24, 2-(2H-1,2,3-Triazol-2-yl)-N-(2-{[5-(trifluoromethyl)pyridin-2-yl]methyl}cyclopentyl)benzamide] | > 10000 nM | 766 nM
Cc1ccc(-n2nccn2)c(C(=O)N[C@H]2CCC[C@@H]2Nc2ccc(C(F)(F)F)cn2)c1 [Example 6, 5-Methyl-2-(2H-1,2,3-triazol-2-yl)-N-[(1S,2S)-2-{[5-(trifluoromethyl)pyridin-2-yl]amino}cyclopentyl]benzamide] | > 10000 nM | 51 nM
COc1cccc(F)c1C(=O)N[C@H]1CCC[C@@H]1Nc1ccc(C(F)(F)F)cn1 [Example 71, 2-Fluoro-6-methoxy-N-[(1S,2S)-2-{[5-(trifluoromethyl)pyridin-2-yl]amino}cyclopentyl]benzamide] | 7600 nM | 722 nM
CC1(Nc2ncc(C(F)(F)F)cn2)CCCC1NC(=O)c1ccccc1-n1nccn1 (centres unmarked) [Example 93, N-(2-Methyl-2-{[5-(trifluoromethyl)pyrimidin-2-yl]amino}cyclopentyl)-2-(2H-1,2,3-triazol-2-yl)benzamide] | > 10000 nM | 35 nM
COc1ccc(C)cc1C(=O)N[C@H]1CCC[C@@H]1Nc1cnc(C(F)(F)F)cn1 [Example 37, 2-Methoxy-5-methyl-N-[(1S,2S)-2-{[5-(trifluoromethyl)pyrazin-2-yl]amino}cyclopentyl]benzamide] | > 10000 nM | 340 nM
C[C@]1(Nc2cnc(C(F)(F)F)cn2)CCC[C@@H]1NC(=O)c1ncccc1-c1ncccn1 [Example 144, N-[(1S,2S)-2-Methyl-2-{[5-(trifluoromethyl)pyrazin-2-yl]amino}cyclopentyl]-3-(pyrimidin-2-yl)pyridine-2-carboxamide] | > 10000 nM | 13 nM
COc1cccc(-n2cccn2)c1C(=O)N[C@H]1CCC[C@@H]1Nc1cnc(C(F)(F)F)cn1 [Example 50, 2-Methoxy-6-(1H-pyrazol-1-yl)-N-[(1S,2S)-2-{[5-(trifluoromethyl)pyrazin-2-yl]amino}cyclopentyl]benzamide] | > 10000 nM | 80 nM
CCOc1cnc(-c2ccccc2C(=O)N[C@H]2CCC[C@@H]2Nc2cnc(C(F)(F)F)cn2)nc1 [Example 135, 2-(5-Ethoxypyrimidin-2-yl)-N-[(1S,2S)-2-{[5-(trifluoromethyl)pyrazin-2-yl]amino}cyclopentyl]benzamide] | > 10000 nM | 94 nM
Cc1nnc(-c2ccccc2C(=O)N[C@H]2CCC[C@@H]2Nc2cnc(C(F)(F)F)cn2)o1 [Example 44, 2-(5-Methyl-1,3,4-oxadiazol-2-yl)-N-[(1S,2S)-2-{[5-(trifluoromethyl)pyrazin-2-yl]amino}cyclopentyl]benzamide] | > 10000 nM | 199 nM
COc1cccc(OC)c1C(=O)N[C@H]1CCC[C@@H]1Oc1cc(C(F)(F)F)ccn1 [Example 21, 2,6-Dimethoxy-N-[(1S,2S)-2-{[4-(trifluoromethyl)pyridin-2-yl]oxy}cyclopentyl]benzamide] | 6420 nM | 576 nM
